In patent publication US8883782B2, “Spiro-tetracyclic ring compounds as beta-secretase modulators and methods of use” (Amgen Inc., priority 2010, dated 2014):

Biological target: Beta Secretase enzyme (BACE) (Homo sapiens, UniProt P56817)
Assay: In vitro enzymatic BACE FRET (fluorescence resonance energy transfer) assay
Type: biochemical
Conditions: BACE 1 FRET assay (uM)
Protocol: In Vitro Enzymatic Bace Fret (Fluorescence Resonance Energy Transfer) Assay (Enzyme Assay Data in the Example Table I)
The assay buffer used in this screen is 0.05 M acetate, pH 4.2, 10% DMSO final, 100 uM genapol (which is a nonionic detergent, below its Critical Micelle Concentration). […] This assay is effectively started by the addition of FRET substrate (50 nM) and the combination is incubated for one hour. The FRET assay is terminated with by addition of Tris buffer, which raises the pH to neutrality, and the fluorescence is determined. The FRET substrate is a peptide with commercially available fluorophore and quencher, on opposite sides of the BACE cleavage site.

Sequence of Beta Secretase enzyme (BACE) (P56817 46-501, species assumed): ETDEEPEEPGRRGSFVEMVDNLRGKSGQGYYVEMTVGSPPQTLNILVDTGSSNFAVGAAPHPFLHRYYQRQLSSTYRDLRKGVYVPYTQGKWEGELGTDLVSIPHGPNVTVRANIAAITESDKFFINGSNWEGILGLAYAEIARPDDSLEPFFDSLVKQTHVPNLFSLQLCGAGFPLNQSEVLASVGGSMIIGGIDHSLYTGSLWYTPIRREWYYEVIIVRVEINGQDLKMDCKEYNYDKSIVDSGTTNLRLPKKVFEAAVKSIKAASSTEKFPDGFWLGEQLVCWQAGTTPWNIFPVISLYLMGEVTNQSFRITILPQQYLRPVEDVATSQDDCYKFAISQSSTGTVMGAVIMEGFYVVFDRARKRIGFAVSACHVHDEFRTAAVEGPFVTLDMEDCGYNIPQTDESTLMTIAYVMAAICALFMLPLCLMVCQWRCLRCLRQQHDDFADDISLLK

Molecule	IC50 [µM]
NC1=N[C@@]2(CO1)c1cc(-c3cccnc3F)ccc1Oc1cnc(N3CCOCC3)cc12 [Example 890, (5S)-7-(2-fluoro-3-pyridinyl)-3-(4-morpholinyl)spiro[chromeno[2,3-c]pyridine-5,4′-[1,3]oxazol]-2′-amine]	0.0013

Same assay, conditions: average IC50, enzyme assay; read-out: BACE 1 FRET assay

Molecule	IC50 [µM]
NC1=N[C@@]2(CO1)c1cc(-c3c(F)ccnc3F)ccc1Oc1cnc([C@H]3CCCOC3)cc12 (mixture of isomers) [Example 909, (5S)-7-(2,4-difluoro-3-pyridinyl)-3-((3R)-tetrahydro-2H-pyran-3-yl)spiro[chromeno[2,3-c]pyridine-5,4′-[1,3]oxazol]-2′-amine, (5S)-7-(2,4-difluoro-3-pyridinyl)-3-((3S)-tetrahydro-2H-pyran-3-yl)spiro[chromeno[2,3-c]pyridine-5,4′-[1,3]oxazol]-2′-amine]	0.0198
CN(C)c1cc2c(cn1)Oc1ccc(-c3cccnc3F)cc1C21COC(N)=N1 (racemic) [Example 706]	0.0224
Cc1cc(-c2cc3c(c(F)n2)Oc2ccc(-c4cccnc4F)cc2[C@]32CSC(N)=N2)ccn1 (racemic) [Example 1032, (5R)-1-fluoro-7-(2-fluoro-3-pyridinyl)-3-(2-methyl-4-pyridinyl)spiro[chromeno[2,3-c]pyridine-5,4′-[1,3]thiazol]-2′-amine, (5S)-1-fluoro-7-(2-fluoro-3-pyridinyl)-3-(2-methyl-4-pyridinyl)spiro[chromeno[2,3-c]pyridine-5,4′-[1,3]thiazol]-2′-amine]	0.0004
NC1=N[C@@]2(CS1)c1cc(-c3cccnc3F)ccc1Oc1cnc(N3CCC(F)(F)C3)cc12 (single isomer, unassigned) [Example 704]	0.0003
(4S)-4′-fluoro-7′-(2-fluoro-3-pyridinyl)-2′-(2-oxa-6-azaspiro[3.4]oct-6-yl)spiro[1,3-oxazole-4,9′-xanthen]-2-amine [Example 857]	< 0.002
(4S)-4′-fluoro-7′-(2-fluoro-3-pyridinyl)-2′-(6-methoxy-3-pyridinyl)spiro[1,3-oxazole-4,9′-xanthen]-2-amine [Example 224]	0.002
(4S)-4′-fluoro-7′-(2-fluoro-3-pyridinyl)-2′-(6-methyl-3-pyridinyl)spiro[1,3-oxazole-4,9′-xanthen]-2-amine [Example 223]	0.002

Test system: Aβ40 in conditioned medium of cells stably expressing Amyloid Precursor Protein (APP)
Assay: In vitro BACE cell-based assay (Aβ40 in conditioned medium, sandwich ELISA)
Conditions: Homo sapiens, HEK293, average IC50, HEK cells; read-out: HEK cell assay
Protocol: In Vitro BACE Cell-Based Assay
The cell-based assay measures inhibition or reduction of Aβ40 in conditioned medium of test compound treated cells expressing amyloid precursor protein.
Cells stably expressing Amyloid Precursor Protein (APP) were plated at a density of 40K cells/well in 96 well plates (Costar). The cells were cultivated for 24 hours at 37° C. and 5% CO2 in DMEM supplemented with 10% FBS. The test compounds were then added to cells in 10-point dose response concentrations with the starting concentration being either 100 μM or 10 μM. The compounds were diluted from stock solutions in DMSO and the final DMSO concentration of the test compounds on cells was 0.1%. […] The IC50 of the compound was calculated from the percent of control or percent inhibition of Aβ 40 as a function of the concentration of the test compound.
The sandwich ELISA to detect Aβ 40 was performed in 96 well microtiter plates, which were pre-treated with goat anti-rabbit IgG (Pierce). The capture and detecting antibody pair that were used to detect Aβ 40 from cell supernatants were affinity purified pAb40 (Biosource) and biotinylated 6E10 (Signet Labs Inc.), respectively. The optimal concentration for the pAb40 antibody was 3 μg/ml in Superblock/TBS (Pierce) that was supplemented with 0.05% Tween 20 (Sigma).
Cellular supernatants were incubated with the capture antibody for 3 h at 4° C., followed by 3 wash steps in TBS-tween (0.05%). The detecting antibody incubation was for 2 h at 4° C., again followed by the wash steps as described previously. The final readout of the ELISA is Time-Resolved Fluorescence (counts per minute) using Delfia reagents Streptavidin-Europium and Enhancement solutions (Perkin Elmer) and the Victor 2 multilabel counter (Perkin Elmer).

IC50 [µM]	Molecule
0.205	CN(C)c1cc2c(cn1)Oc1ccc(-c3cccnc3F)cc1C21COC(N)=N1 (racemic) [Example 706]
0.0065	NC1=N[C@@]2(CO1)c1cc(-c3cccnc3F)ccc1Oc1ncc(C3=CCOCC3)cc12 [Example 460, (5S)-3-(3,6-dihydro-2H-pyran-4-yl)-7-(2-fluoro-3-pyridinyl)spiro[chromeno[2,3-b]pyridine-5,4′-[1,3]oxazol]-2′-amine]
10	NC1=N[C@@]2(CS1)c1cc(Br)ccc1Oc1cnc(Cl)cc12 [Example 588, (5S)-7-bromo-3-chlorospiro[chromeno[2,3-c]pyridine-5,4′-[1,3]thiazol]-2′-amine]
0.039	NC1=N[C@@]2(CS1)c1cc(-c3cccnc3F)ccc1Oc1cnc(-c3ccnc(F)c3)cc12 [Example 589, (5S)-7-(2-fluoro-3-pyridinyl)-3-(2-fluoro-4-pyridinyl)spiro[chromeno[2,3-c]pyridine-5,4′-[1,3]thiazol]-2′-amine]
0.332	NC1=N[C@@]2(CO1)c1cc(-c3cccc(F)n3)ccc1Oc1cnc(-c3ccnc(F)c3)cc12 [Example 632, (5S)-3-(2-fluoro-4-pyridinyl)-7-(6-fluoro-2-pyridinyl)spiro[chromeno[2,3-c]pyridine-5,4′-[1,3]oxazol]-2′-amine]
0.609	NC1=N[C@]2(CO1)c1cc(-c3cccnc3F)ccc1Oc1c2cc(C2=CCCOC2)nc1F [Example 908, (5R)-3-(5,6-dihydro-2H-pyran-3-yl)-1-fluoro-7-(2-fluoro-3-pyridinyl)spiro[chromeno[2,3-c]pyridine-5,4′-[1,3]oxazol]-2′-amine]

Molecule	IC50 [µM]
NC1=N[C@@]2(CS1)c1cc(-c3cccnc3F)ccc1Oc1cnc(N3CCC(F)(F)C3)cc12 (single isomer, unassigned) [Example 704]	0.012

Same assay, conditions: Homo sapiens, HEK293, average IC50; read-out: HEK cell assay

IC50 [µM]	Molecule
0.0032	NC1=N[C@@]2(CO1)c1cc(-c3cccnc3F)ccc1Oc1c(F)cc(C3=CCCOC3)cc12 [Example 129, (S)-2′-(5,6-dihydro-2H-pyran-3-yl)-4′-fluoro-7′-(2-fluoropyridin-3-yl)-5H-spiro[oxazole-4,9′-xanthen]-2-amine]
0.0052	NC1=N[C@@]2(CO1)c1cc(-c3cccnc3F)ccc1Oc1c(F)cc(N3CCOCC3)cc12 [Example 139, (S)-4′-fluoro-7′-(2-fluoropyridin-3-yl)-2′-morpholino-5H-spiro[oxazole-4,9′-xanthen]-2-amine]
0.0097	NC1=N[C@@]2(CO1)c1cc(-c3cccnc3F)ccc1Oc1c(F)cc(-c3ccccn3)cc12 [Example 196, (4S)-4′-fluoro-7′-(2-fluoro-3-pyridinyl)-2′-(2-pyridinyl)spiro[1,3-oxazole-4,9′-xanthen]-2-amine]
0.0085	NC1=N[C@@]2(CO1)c1cc(-c3cccnc3F)ccc1Oc1c(F)cc(N3CC[C@@H](F)C3)cc12 [Example 279, (4S)-4′-fluoro-7′-(2-fluoro-3-pyridinyl)-2′-((3R)-3-fluoro-1-pyrrolidinyl)spiro[1,3-oxazole-4,9′-xanthen]-2-amine]
0.0069	NC1=N[C@@]2(CO1)c1cc(-c3cccnc3F)ccc1Oc1c(F)cc(N3CC[C@H](F)C3)cc12 [Example 280, (S)-4′-fluoro-7′-(2-fluoropyridin-3-yl)-2′-((S)-3-fluoropyrrolidin-1-yl)-5H-spiro[oxazole-4,9′-xanthen]-2-amine]
3.06	NC1=N[C@@]2(CO1)c1cc(-c3cccnc3F)ccc1Oc1c2cc(C2=COCCC2)nc1F [Example 807, (5S)-3-(3,4-dihydro-2H-pyran-5-yl)-1-fluoro-7-(2-fluoro-3-pyridinyl)spiro[chromeno[2,3-c]pyridine-5,4′-[1,3]oxazol]-2′-amine]
0.002	NC1=N[C@@]2(CO1)c1cc(-c3cncc(C#CCO)c3)ccc1Oc1cnc(C3=CCOCC3)cc12 [Example 826, 3-(5-((5S)-2′-amino-3-(3,6-dihydro-2H-pyran-4-yl)spiro[chromeno[2,3-c]pyridine-5,4′-[1,3]oxazol]-7-yl)-3-pyridinyl)-2-propyn-1-ol]
≥ 10	NC1=N[C@@]2(CS1)c1cc(Br)ccc1Oc1cnc(Cl)cc12 [Example 994, (5S)-7-bromo-3-chlorospiro[chromeno[2,3-c]pyridine-5,4′-[1,3]thiazol]-2′-amine]
1.18	NC1=N[C@]2(CS1)c1cc(-c3cccnc3F)ccc1Oc1c2cc(-c2ccnc(F)c2)nc1F [Example 997, (5R)-1-fluoro-7-(2-fluoro-3-pyridinyl)-3-(2-fluoro-4-pyridinyl)spiro[chromeno[2,3-c]pyridine-5,4′-[1,3]thiazol]-2′-amine]

Same assay, conditions: Homo sapiens, HEK293, read-out: HEK cell assay (uM)

IC50 [µM]	Molecule
0.0096	NC1=N[C@@]2(CO1)c1cc(-c3cccnc3F)ccc1Oc1cnc(N3CC[C@H](F)C3)cc12 [Example 133, (S)-7-(2-fluoropyridin-3-yl)-3-((S)-3-fluoropyrrolidin-1-yl)-5′H-spiro[chromeno[2,3-c]pyridine-5,4′-oxazol]-2′-amine]
0.0049	NC1=N[C@@]2(CO1)c1cc(-c3cccnc3F)ccc1Oc1cnc(N3CC[C@@H](F)C3)cc12 [Example 416, (5S)-7-(2-fluoro-3-pyridinyl)-3-((3R)-3-fluoro-1-pyrrolidinyl)spiro[chromeno[2,3-c]pyridine-5,4′-[1,3]oxazol]-2′-amine]

Same assay, conditions: average IC50, HEK cells; read-out: HEK cell assay

IC50 [µM]	Molecule
1.09	2′-amino-9-fluoro-7-((3-methyl-3-oxetanyl)ethynyl)spiro[chromeno[2,3-c]pyridine-5,4′-[1,3]oxazol]-3-yl)benzonitrile [Example 694]

Same assay, conditions: average IC50; read-out: HEK cell assay

Molecule	IC50 [µM]
CC(C)(C)C#Cc1cnc2c(c1)[C@]1(COC(N)=N1)c1cc(-c3cncnc3)c(F)cc1O2 [Example 340, (5S)-3-(3,3-dimethyl-1-butyn-1-yl)-8-fluoro-7-(5-pyrimidinyl)spiro[chromeno[2,3-b]pyridine-5,4′-[1,3]oxazol]-2′-amine]	0.0843
(4R)-4′-fluoro-2′-methoxy-7′-(5-pyrimidinyl)spiro[1,3-thiazole-4,9′-xanthen]-2-amine [Example 217]	1.57
(4S)-4′-fluoro-2′-methoxy-7′-(5-pyrimidinyl)spiro[1,3-thiazole-4,9′-xanthen]-2-amine [Example 216]	0.045
(4S)-7′-bromo-4′-fluoro-2′-methoxyspiro[1,3-thiazole-4,9′-xanthen]-2-amine [Example 218]	0.128

Same assay, conditions: read-out: HEK cell assay

Molecule	IC50 [µM]
NC1=N[C@@]2(CO1)c1cc(-c3c(F)ccnc3F)ccc1Oc1cnc([C@H]3CCCOC3)cc12 (mixture of isomers) [Example 909, (5S)-7-(2,4-difluoro-3-pyridinyl)-3-((3R)-tetrahydro-2H-pyran-3-yl)spiro[chromeno[2,3-c]pyridine-5,4′-[1,3]oxazol]-2′-amine, (5S)-7-(2,4-difluoro-3-pyridinyl)-3-((3S)-tetrahydro-2H-pyran-3-yl)spiro[chromeno[2,3-c]pyridine-5,4′-[1,3]oxazol]-2′-amine]	0.266
Cc1cc(-c2cc3c(c(F)n2)Oc2ccc(-c4cccnc4F)cc2[C@]32CSC(N)=N2)ccn1 (racemic) [Example 1032, (5R)-1-fluoro-7-(2-fluoro-3-pyridinyl)-3-(2-methyl-4-pyridinyl)spiro[chromeno[2,3-c]pyridine-5,4′-[1,3]thiazol]-2′-amine, (5S)-1-fluoro-7-(2-fluoro-3-pyridinyl)-3-(2-methyl-4-pyridinyl)spiro[chromeno[2,3-c]pyridine-5,4′-[1,3]thiazol]-2′-amine]	0.003
